Square brackets hold non-standard residues; d marks the D form.
Columns and labels:
[1] = biological target: D-form of SARS-CoV-2 HR1 (SARS CoV-2 D-HR1-biotin) (Severe acute respiratory syndrome coronavirus 2, UniProt P0DTC2); type: binding
[2] = biological target: L-form of SARS-CoV-2 HR1 (SARS CoV-2 HR1-biotin) (Severe acute respiratory syndrome coronavirus 2, UniProt P0DTC2); test: biochemical; type: binding
[3] = test system: SARS CoV-2 pseudotyped lentivirus; type: cell-based; conditions: read-out: observed IC50, inhibition of pseudotyped virus infection

Substance | affinity for SARS CoV-2 D-HR1-biotin compared with parental SEQ ID NO: 11 [1] | Kd [2] | IC50 [3]
ATVKFTYQGEEKQVDISKIKYVLRIGQAIWFRYDEGGGAIGNGWVSEEDAPKELLQMLEKR [SEQ ID NO:51] | higher affinity |  | 
ATVKFTYQGEEKQVDISKIKYVLRIGQAIWFRYDEGGGAIGNGWVSEEDAPKELLQMLGKR [SEQ ID NO:53] | higher affinity |  | 
[dA][dT][dV][dK][dF][dT][dY][dQ]G[dE][dE][dK][dQ][dV][dD][dI][dS][dK][dI][dK][dY][dV][dL][dR][dI]G[dQ][dA][dI][dW][dF][dR][dY][dD][dE]GGG[dA][dI]G[dN]G[dW][dV][dS][dE][dK][dD][dA][dP][dK][dE][dL][dL][dQ][dM][dL][dE][dK][dQ] [SEQ ID NO:12] |  | 0.814 µM | 2.2 µM
